This is an account of results in US10752609B2, “GSK-3 inhibitors” (priority 2016, dated 2020).

Like-named read-outs stand apart in the source and are kept apart here.

Assay [1] addresses GSK3α (Homo sapiens, UniProt P49840). Kind of assay: GSK3α kinase assay (Caliper LabChip3000 mobility shift, fluoresceinated peptide substrate).
Description: The kinase assay was performed in V-bottom 384-well plates. […] The reaction was incubated at room temperature for 20 hours and terminated by adding 45 μl of 35 mM EDTA to each sample. The reaction mixture was analyzed on the Caliper LabChip3000 (Caliper, Hopkinton, Mass.) by electrophoretic separation of the unphosphorylated substrate and phosphorylated product. […] Compounds were dissolved at 10 mM in dimethylsulfoxide (DMSO) and evaluated at eleven concentrations. IC50 values were derived by non-linear regression analysis.
Assay [2] deals with pTau. Nature of the assay: pTau assay (no method described). It is filed as cell-based.
Assay [3] has as its target GSK3β (Homo sapiens, UniProt P49841). Nature of the assay: GSK3β kinase assay (Caliper LabChip3000 mobility shift, fluoresceinated peptide substrate). It is filed as biochemical.
Setting [4] is: 250 pM enzyme, 20 uM ATP, 1.5 uM peptide, 20 hours room temperature, first value of cell GSK3β/GSK3α, read-out: GSK3β (nM), IC50.

Sequence of GSK3α (P49840 whole entry, species assumed): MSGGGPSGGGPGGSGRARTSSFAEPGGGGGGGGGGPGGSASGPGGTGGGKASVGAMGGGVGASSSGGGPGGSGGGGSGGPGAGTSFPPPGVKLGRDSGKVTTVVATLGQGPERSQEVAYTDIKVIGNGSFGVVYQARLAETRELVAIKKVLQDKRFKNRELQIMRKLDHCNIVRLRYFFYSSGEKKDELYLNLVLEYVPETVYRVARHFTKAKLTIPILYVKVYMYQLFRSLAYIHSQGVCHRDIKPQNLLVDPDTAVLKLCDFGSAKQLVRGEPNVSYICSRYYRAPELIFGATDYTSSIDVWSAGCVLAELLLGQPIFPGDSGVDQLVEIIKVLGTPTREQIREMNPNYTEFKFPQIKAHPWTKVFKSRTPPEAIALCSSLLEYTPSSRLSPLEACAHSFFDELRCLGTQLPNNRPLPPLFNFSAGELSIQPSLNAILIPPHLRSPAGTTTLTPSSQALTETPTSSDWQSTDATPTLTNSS
Sequence of GSK3β (P49841 whole entry, species assumed): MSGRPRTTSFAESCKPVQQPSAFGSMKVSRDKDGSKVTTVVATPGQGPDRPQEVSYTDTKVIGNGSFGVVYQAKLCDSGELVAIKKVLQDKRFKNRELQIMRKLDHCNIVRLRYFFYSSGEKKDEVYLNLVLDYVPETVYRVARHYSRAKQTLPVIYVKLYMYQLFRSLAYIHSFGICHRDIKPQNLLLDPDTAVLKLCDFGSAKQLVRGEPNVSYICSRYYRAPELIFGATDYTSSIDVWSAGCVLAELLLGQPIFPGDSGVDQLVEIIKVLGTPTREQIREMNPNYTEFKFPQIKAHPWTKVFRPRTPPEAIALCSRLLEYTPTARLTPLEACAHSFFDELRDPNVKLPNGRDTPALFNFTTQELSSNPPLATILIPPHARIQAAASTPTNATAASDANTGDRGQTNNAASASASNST

Turning to `CCO[C@H]1COC[C@@H]1Nc1nccc(C(=O)Nc2cnccc2-c2ccccc2)n1` [Example 92, 2-(((3S,4R)-4-Ethoxytetrahydrofuran-3-yl)amino)-N-(4-phenylpyridin-3-yl)pyrimidine-4-carboxamide], the IC50 stood at 2.2 nM in assay [1], 250 nM in assay [2] and 3.8 nM in assay [3] (setting [4]).

On to `O=C(Nc1cnc(F)cc1N1CCOCC1)c1ccnc(Nc2ccc(Cl)c(F)c2)n1` [Example 169, 2-((4-Chloro-3-fluorophenyl)amino)-N-(6-fluoro-4-morpholinopyridin-3-yl)pyrimidine-4-carboxamide], for which the results for the IC50 in assay [1], in assay [2] and in assay [3] (setting [4]) were 0.15 nM, 34 nM and 0.27 nM, respectively.

As for `Cc1nc(OC(F)F)ccc1Nc1nccc(C(=O)Nc2cnccc2-c2ccccc2)n1` [Example 40, 2-((6-(Difluoromethoxy)-2-methylpyridin-3-yl)amino)-N-(4-phenylpyridin-3-yl)pyrimidine-4-carboxamide], the IC50 was determined as 21 nM in assay [1], 5200 nM in assay [2] and 22 nM in assay [3] (setting [4]).

Turning to `O=C(Nc1cnccc1OCC(F)(F)F)c1ccnc(Nc2ccccn2)n1` [Example 114, 2-(Pyridin-2-ylamino)-N-(4-(2,2,2-trifluoroethoxy)pyridin-3-yl)pyrimidine-4-carboxamide], the values for the IC50 in assay [1], in assay [2] and in assay [3] were 14 nM, 210 nM and 20 nM, respectively.

As to `O=C(Nc1cncnc1OCC(F)(F)F)c1ccnc(Nc2ccc(OC(F)F)cc2)n1` [Example 70, 2-((4-(Difluoromethoxy)phenyl)amino)-N-(4-(2,2,2-trifluoroethoxy)pyrimidin-5-yl)pyrimidine-4-carboxamide], the IC50 in assay [2] came to 52 nM.

Turning to `CN1CCC(Nc2nccc(C(=O)Nc3cnccc3-c3ccccc3)n2)CC1` [Example 165, 2-((1-Methylpiperidin-4-yl)amino)-N-(4-phenylpyridin-3-yl)pyrimidine-4-carboxamide], the IC50 in assay [1] was found to be 110 nM; in assay [2], 3300 nM; in assay [3] (setting [4]), 91 nM.

With `O=C(Nc1cncnc1N1CCOCC1)c1ccnc(NCC2CCOCC2)n1` [Example 206, N-(4-Morpholinopyrimidin-5-yl)-2-(((tetrahydro-2H-pyran-4-yl)methyl)amino)pyrimidine-4-carboxamide], the IC50 turned out to be 99 nM in assay [1], 4700 nM in assay [2] and 74 nM in assay [3] (setting [4]).

For the compound `CC(C)(C)C1CCC(Nc2nccc(C(=O)Nc3cnccc3OCC(F)(F)F)n2)CC1` (stereo not shown) [Example 121, 2-((4-(tert-Butyl)cyclohexyl)amino)-N-(4-(2,2,2-trifluoroethoxy)pyridin-3-yl)pyrimidine-4-carboxamide], the IC50 is 0.35 nM in assay [1], 61 nM in assay [2] and 0.46 nM in assay [3] (setting [4]).

On to `N#Cc1ccc(Nc2nccc(C(=O)Nc3cnccc3-c3ccccc3)n2)cc1C(F)(F)F` [Example 28, 2-((4-Cyano-3-(trifluoromethyl)phenyl)amino)-N-(4-phenylpyridin-3-yl)pyrimidine-4-carboxamide], for which the figures for the IC50 in assay [1], in assay [2] and in assay [3] were 0.9 nM, 170 nM and 1.5 nM, respectively.

Take `Cc1cc(N2CCC(F)(F)CC2)c(NC(=O)c2ccnc(Nc3ccc(Cl)cc3)n2)cn1` [Example 182, 2-((4-Chlorophenyl)amino)-N-(4-(4,4-difluoropiperidin-1-yl)-6-methylpyridin-3-yl)pyrimidine-4-carboxamide]: the IC50 in assay [1] was found to be 1 nM; in assay [2], 220 nM; in assay [3] (setting [4]), 2.5 nM.

As to `O=C(Nc1cnc(F)cc1N1CCOCC1)c1ccnc(Nc2cccc(OC(F)(F)F)c2)n1` [Example 172, N-(6-Fluoro-4-morpholinopyridin-3-yl)-2-((3-(trifluoromethoxy)phenyl)amino)pyrimidine-4-carboxamide], the IC50 worked out at 0.46 nM in assay [1], 160 nM in assay [2] and 0.89 nM in assay [3] (setting [4]).

Take `CCNc1nccc(C(=O)Nc2cnccc2OCC(F)(F)F)n1` [Example 123, 2-(Ethylamino)-N-(4-(2,2,2-trifluoroethoxy)pyridin-3-yl)pyrimidine-4-carboxamide]: the IC50 in assay [1] is 4.5 nM; in assay [2], 55 nM; in assay [3] (setting [4]), 0.92 nM.

As to `Cn1cc(Nc2nccc(C(=O)Nc3cnccc3-c3ccccc3)n2)nn1` [Example 99, 2-((1-Methyl-1H-1,2,3-triazol-4-yl)amino)-N-(4-phenylpyridin-3-yl)pyrimidine-4-carboxamide], the IC50 in assay [1] worked out at 190 nM; in assay [2] it was 10000 nM; in assay [3] (setting [4]), 78 nM.

As for `Cc1ccc(Nc2nccc(C(=O)Nc3cnccc3OCC(F)(F)F)n2)cn1` [Example 83, 2-((6-Methylpyridin-3-yl)amino)-N-(4-(2,2,2-trifluoroethoxy)pyridin-3-yl)pyrimidine-4-carboxamide], the results for the IC50 in assay [1], in assay [2] and in assay [3] (setting [4]) were 0.16 nM, 5.1 nM and 0.22 nM, respectively.

As for `Cc1ccc(Nc2nccc(C(=O)Nc3cncc(-c4ccccc4F)c3)n2)cn1` [Example 103, N-(5-(2-Fluorophenyl)pyridin-3-yl)-2-((6-methylpyridin-3-yl)amino)pyrimidine-4-carboxamide], the IC50 in assay [1] worked out at 1.3 nM; in assay [2] it was 510 nM; in assay [3] (setting [4]), 3.1 nM.

On to `O=C(Nc1cnc(F)cc1N1CCC(F)(F)CC1)c1ccnc(Nc2ccc(C(F)(F)F)cc2)n1` [Example 183, N-(4-(4,4-Difluoropiperidin-1-yl)-6-fluoropyridin-3-yl)-2-((4-(trifluoromethyl)phenyl)amino)pyrimidine-4-carboxamide], for which the IC50 amounted to 3.1 nM in assay [1] and 2.9 nM in assay [3] (setting [4]).

On to `O=C(Nc1cnccc1OCC(F)(F)F)c1ccnc(Nc2cnn(-c3cc(F)ccc3F)c2)n1` [Example 108, 2-((1-(2,5-Difluorophenyl)-1H-pyrazol-4-yl)amino)-N-(4-(2,2,2-trifluoroethoxy)pyridin-3-yl)pyrimidine-4-carboxamide], for which the concentration for half-maximal inhibition (IC50) came out at 0.17 nM in assay [1] and 0.24 nM in assay [3] (setting [4]).

For `CC(C)Nc1nccc(C(=O)Nc2cnc(F)cc2OCC(F)(F)F)n1` [Example 136, N-(6-Fluoro-4-(2,2,2-trifluoroethoxy)pyridin-3-yl)-2-(isopropylamino)pyrimidine-4-carboxamide], the IC50 turned out to be 320 nM in assay [2] and 3.7 nM in assay [3] (setting [4]).

For `CC(C)(C)C1CCC(Nc2nccc(C(=O)Nc3cnccc3-c3ccccc3F)n2)CC1` (stereo not shown) [Example 160, 2-((4-(tert-Butyl)cyclohexyl)amino)-N-(4-(2-fluorophenyl)pyridin-3-yl)pyrimidine-4-carboxamide], the values for the IC50 in assay [2] and in assay [3] (setting [4]) were 4900 nM and 15 nM, respectively.

In the case of `CC(C)Nc1nccc(C(=O)Nc2cnccc2-c2ccc(F)cc2)n1` [Example 152, N-(4-(4-Fluorophenyl)pyridin-3-yl)-2-(isopropylamino)pyrimidine-4-carboxamide], the IC50 in assay [2] was 62 nM; in assay [3] (setting [4]) it was 0.71 nM.

As to `Cc1ccc(NC(=O)c2ccnc(N)n2)cn1` [Example 1, 2-Amino-N-(6-methylpyridin-3-yl)pyrimidine-4-carboxamide], the figures for the IC50 in assay [2] and in assay [3] (setting [4]) were 10000 nM and 57 nM, respectively.

With `O=C(Nc1cnc(F)cc1OCC(F)(F)F)c1ccnc(NC2CCC2)n1` [Example 127, 2-(Cyclobutylamino)-N-(6-fluoro-4-(2,2,2-trifluoroethoxy)pyridin-3-yl)pyrimidine-4-carboxamide], the IC50 in assay [2] stood at 140 nM; in assay [3] (setting [4]), 1.2 nM.

Regarding `O=C(Nc1cnccc1OCC(F)(F)F)c1ccnc(Nc2ccc(OC(F)F)cc2)n1` [Example 60, 2-((4-(Difluoromethoxy)phenyl)amino)-N-(4-(2,2,2-trifluoroethoxy)pyridin-3-yl)pyrimidine-4-carboxamide], in assay [2], the IC50 was determined as 5.5 nM.

Compound `CC(Nc1nccc(C(=O)Nc2cnccc2OCC(F)(F)F)n1)c1cc(F)cc(F)c1` (stereo not shown) [Example 146, 2-((1-(3,5-Difluorophenyl)ethyl)amino)-N-(4-(2,2,2-trifluoroethoxy)pyridin-3-yl)pyrimidine-4-carboxamide] displayed an IC50 in assay [2] of 320 nM.

Regarding `O=C(Nc1cncnc1)c1ccnc(Nc2cccc(-c3ccccc3)n2)n1` [Example 195, 2-((6-Phenylpyridin-2-yl)amino)-N-(pyrimidin-5-yl)pyrimidine-4-carboxamide], the IC50 in assay [1] turned out to be 7.2 nM; in assay [3] (setting [4]) it was 8.9 nM.

On to `N#Cc1ccc(Nc2nccc(C(=O)Nc3cnccc3-c3ccccc3)n2)c(F)c1` [Example 22, 2-((4-Cyano-2-fluorophenyl)amino)-N-(4-phenylpyridin-3-yl)pyrimidine-4-carboxamide], for which the IC50 in assay [1] came out at 0.21 nM; in assay [3] (setting [4]), 0.31 nM.

The compound `O=C(Nc1cnccc1OCC(F)(F)F)c1ccnc(Nc2ccc3ccccc3c2)n1` [Example 115, 2-(Naphthalen-2-ylamino)-N-(4-(2,2,2-trifluoroethoxy)pyridin-3-yl)pyrimidine-4-carboxamide] registered an IC50 in assay [2] of 23 nM.

Take `O=C(Nc1cnccc1OCC(F)(F)F)c1ccnc(Nc2cccc3ccccc23)n1` [Example 112, 2-(Naphthalen-1-ylamino)-N-(4-(2,2,2-trifluoroethoxy)pyridin-3-yl)pyrimidine-4-carboxamide]: the IC50 in assay [1] was found to be 2.1 nM; in assay [3] (setting [4]), 3.6 nM.

With `O=C(Nc1cnccc1OCC(F)(F)F)c1ccnc(NC2CCC2)n1` [Example 119, 2-(Cyclobutylamino)-N-(4-(2,2,2-trifluoroethoxy)pyridin-3-yl)pyrimidine-4-carboxamide], the values for the IC50 in assay [2] and in assay [3] (setting [4]) were 20 nM and 0.34 nM, respectively.

For `O=C(Nc1cnccc1-c1ccc(F)cc1)c1ccnc(Nc2ccccn2)n1` [Example 161, N-(4-(4-Fluorophenyl)pyridin-3-yl)-2-(pyridin-2-ylamino)pyrimidine-4-carboxamide], the IC50 in assay [1] came to 20 nM; in assay [3] (setting [4]), 22 nM.

As usually defined, the IC50 is the concentration that inhibits the measured activity by half.
